Results reported in paper PMC3983855, “Identification and enzymatic characterization of acid phosphatase from Burkholderia gladioli” (BMC Research Notes, 2014).

System: membrane-bound acid phosphatase (MBAcP)
Conditions: read-out: K0.5; 50 mM acetate pH 6.0, 37°C; membrane fraction; n = 1.3

Compound `O=[N+]([O-])c1ccc(OP(=O)(O)O)cc1` [p-nitrophenylphosphate] has a Km of 65 µM.
